According to ChEMBL document CHEMBL1201862, “PubChem BioAssay data set” (2004):
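Step 1: Grow cells in 96-well plates. Step 2: Expose to compound for 48 hours at 5 concentrations. Step 3: Interpolate endpoints linearly; if unreached, use highest concentration. GI50: concentration for 50% inhibition of growth.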 Calls of active or inactive are those of the source. No stated cut-off is given here; in the data, active = GI50 up to about 1.1 µM and inactive = higher.

Assays:
Assay in all cases: NCI tumour cell line growth inhibition, 48 h
A549 = system: A549
ACHN = system: ACHN
COLO 205 = system: COLO 205
HCT-15 = system: HCT-15
UACC-62 = system: UACC-62
NCI-H226 = system: NCI-H226
NCI-H23 = system: NCI-H23
KM12 = system: KM12
LOX IMVI = system: LOX IMVI
SF-268 = system: SF-268
786-0 = system: 786-0
M14 = system: M14
SK-OV-3 = system: SK-OV-3
A498 = system: A498
HOP-62 = system: HOP-62
Malme-3M = system: Malme-3M
NCI-H522 = system: NCI-H522
HOP-92 = system: HOP-92
T47D = system: T47D

SMILES	GI50 (A549)	GI50 (ACHN)	GI50 (COLO 205)	GI50 (HCT-15) [µM]	GI50 (UACC-62)	GI50 (NCI-H226)	GI50 (NCI-H23)	GI50 (KM12)	GI50 (LOX IMVI)	GI50 (SF-268)	GI50 (786-0)	GI50 (M14)	GI50 (SK-OV-3)	GI50 (A498)	GI50 (HOP-62)	GI50 (Malme-3M)	GI50 (NCI-H522)	GI50 (HOP-92)	GI50 (T47D)
O=[N+]([O-])c1ccc(/C=C/c2cc(-c3ccccc3)nc3ccc4ccccc4c23)cc1	> 100 µM (inactive)	> 100 µM (inactive)	> 100 µM (inactive)	> 100	> 100 µM (inactive)	> 100 µM (inactive)	> 100 µM (inactive)	> 100 µM (inactive)	> 100 µM (inactive)	> 100 µM (inactive)	> 100 µM (inactive)	> 100 µM (inactive)	> 100 µM (inactive)	> 100 µM (inactive)	> 100 µM (inactive)	> 100 µM (inactive)			
N[C@H]1CCN(c2c(F)cc3c(=O)c(C(=O)O)cn4c3c2Oc2cc3c(ccc5ccccc53)cc2-4)C1	3.87 µM (inactive)	2.32 µM (inactive)	2.75 µM (inactive)	3.98	6.14 µM (inactive)	2.58 µM (inactive)	4.83 µM (inactive)	3.49 µM (inactive)	3.08 µM (inactive)		2.88 µM (inactive)	4.68 µM (inactive)	5.61 µM (inactive)	3.56 µM (inactive)	4.06 µM (inactive)	4.43 µM (inactive)	4 µM (inactive)	2.59 µM (inactive)	
CN(CC(=O)O)S(=O)(=O)c1ccc2ccccc2c1	> 100 µM (inactive)	> 100 µM (inactive)	> 100 µM (inactive)	> 100	> 100 µM (inactive)		> 100 µM (inactive)	> 100 µM (inactive)	> 100 µM (inactive)	> 100 µM (inactive)	> 100 µM (inactive)	> 100 µM (inactive)	> 100 µM (inactive)	> 100 µM (inactive)		> 100 µM (inactive)	> 100 µM (inactive)	> 100 µM (inactive)	
CC(Oc1ccc2c(-c3ccc(Cl)cc3)cc(=O)oc2c1)C(=O)O (centres undefined)	> 100 µM (inactive)	> 100 µM (inactive)	> 100 µM (inactive)		> 100 µM (inactive)	> 100 µM (inactive)	> 100 µM (inactive)	> 100 µM (inactive)	> 100 µM (inactive)	> 100 µM (inactive)	> 100 µM (inactive)	> 100 µM (inactive)	> 100 µM (inactive)	> 100 µM (inactive)	> 100 µM (inactive)	> 100 µM (inactive)	> 100 µM (inactive)	> 100 µM (inactive)	
O=C1CN(c2cccc(Cl)c2)C(=O)CN1NCNN1CC(=O)N(c2cccc(Cl)c2)CC1=O	> 100 µM (inactive)	> 100 µM (inactive)	> 100 µM (inactive)	> 100	> 100 µM (inactive)		> 100 µM (inactive)	> 100 µM (inactive)		> 100 µM (inactive)	> 100 µM (inactive)	> 100 µM (inactive)	> 100 µM (inactive)	> 100 µM (inactive)	> 100 µM (inactive)	> 100 µM (inactive)	> 100 µM (inactive)	> 100 µM (inactive)	
COc1ccc(N2C(=O)CC(c3c[nH]c4ccccc34)C2=O)cc1 (centres undefined)	> 100 µM (inactive)	> 100 µM (inactive)	> 100 µM (inactive)	> 100	> 100 µM (inactive)	> 100 µM (inactive)	> 100 µM (inactive)		> 100 µM (inactive)	> 100 µM (inactive)	> 100 µM (inactive)	> 100 µM (inactive)	> 100 µM (inactive)	> 100 µM (inactive)	> 100 µM (inactive)	> 100 µM (inactive)		> 100 µM (inactive)	
C[N+]12C=CC=C1C(N1CCCC1)c1scc(-c3ccc(F)cc3)c12 (centres undefined)	56 µM (inactive)		18.7 µM (inactive)		35.4 µM (inactive)	23.5 µM (inactive)		23.8 µM (inactive)	40.8 µM (inactive)	32.4 µM (inactive)	47.2 µM (inactive)	69.8 µM (inactive)	> 100 µM (inactive)	43.3 µM (inactive)	63.7 µM (inactive)	60.4 µM (inactive)	17.6 µM (inactive)		5.93 µM (inactive)
C=C(C)CC(C)(c1cc2ccccc2n1C)N1CCOCC1 (centres undefined)	59.2 µM (inactive)	62.2 µM (inactive)	> 100 µM (inactive)	75.7	45.1 µM (inactive)	69.8 µM (inactive)	55.1 µM (inactive)	38.4 µM (inactive)	> 100 µM (inactive)	41.5 µM (inactive)	> 100 µM (inactive)	70 µM (inactive)	> 100 µM (inactive)		> 100 µM (inactive)	> 100 µM (inactive)	10.6 µM (inactive)	14.8 µM (inactive)	
Cc1cc(C)c(-c2noc(-c3ccc(Cl)cc3)c2C2=NCCCN2)c(C)c1	24 µM (inactive)	17.6 µM (inactive)	13.8 µM (inactive)	18.5	16.3 µM (inactive)	29.9 µM (inactive)	17.9 µM (inactive)	23 µM (inactive)	16.2 µM (inactive)	11.3 µM (inactive)	7.45 µM (inactive)	2.47 µM (inactive)	18.4 µM (inactive)		21.8 µM (inactive)	19.4 µM (inactive)	20 µM (inactive)		
OCC1OC(Oc2cc(O)cc(/C=C\c3ccc(O)cc3)c2)C(O)C(O)C1O (centres undefined)	> 100 µM (inactive)	> 100 µM (inactive)		> 100	> 100 µM (inactive)	> 100 µM (inactive)		> 100 µM (inactive)	> 100 µM (inactive)		> 100 µM (inactive)		> 100 µM (inactive)	> 100 µM (inactive)	> 100 µM (inactive)		> 100 µM (inactive)	> 100 µM (inactive)	
CC(=O)c1nc2ccccc2n1C(C)C(=O)c1ccccc1 (centres undefined)	27.1 µM (inactive)		> 100 µM (inactive)	81.5	33 µM (inactive)	> 100 µM (inactive)	> 100 µM (inactive)	58.3 µM (inactive)	34.3 µM (inactive)	26.5 µM (inactive)	36.9 µM (inactive)	42.8 µM (inactive)	69 µM (inactive)	> 100 µM (inactive)	57.1 µM (inactive)	50.2 µM (inactive)	15.5 µM (inactive)	69.3 µM (inactive)	
COc1cc(C2c3cc4c(cc3[C@@H](Nc3ccccc3)C3COC[C@H]23)OCO4)cc(OC)c1O (some centres undefined)	0.35 µM (active)	0.483 µM (active)	3.28 µM (inactive)	1.12				2.84 µM (inactive)		3.03 µM (inactive)	1.1 µM (active)	2.59 µM (inactive)	2.92 µM (inactive)		1.48 µM (inactive)		2.2 µM (inactive)		1.19 µM (inactive)
Nn1c(CCCCCCCCc2nnc(COc3ccc4ccccc4c3O)n2N)nnc1COc1ccc2ccccc2c1O	25.1 µM (inactive)	31.3 µM (inactive)	19.5 µM (inactive)	22.3	26.4 µM (inactive)	17.9 µM (inactive)	16 µM (inactive)	18.7 µM (inactive)		29.8 µM (inactive)	33.9 µM (inactive)	30.1 µM (inactive)	44 µM (inactive)	35.8 µM (inactive)		4.48 µM (inactive)	14.6 µM (inactive)	17.3 µM (inactive)	
